# Data published in patent publication US11767332B2, “Glucose-sensitive albumin-binding derivatives” (Novo Nordisk A/S, priority 2017, dated 2023).
# Legend:
# [1] = Alizarin red (ARS) assay, glucose binding affinity; details: 20 mM phosphate buffer pH 7.4, room temperature
# Experimental: (§1) The alizarin-red binding assay is a colorimetric assay used to determine the inhibition affinity of boronate compounds to glucose. The assay is based on a colour shift of alizarin-red upon binding to boronate, which shift can be followed by change in absorbance in the 330-340 nm region.
# (§2) After 5 minutes of centrifugation at 4000 rpm, the plate is placed in a multi-well spectrometer (SpectraMax, Molecular Devices) for absorption detection.
# (§3) The analysis is carried out at room temperature with absorption readings at 330, 340 and 520 nm, respectively. Data obtained for absorption versus concentration of boronate is then fitted (Prism 7, GraphPad) with a sigmoidal function to obtain the Kd value of boronate and ARS.
# (§4) Upon complete dissolution of the compound, 200 μM of Alizarin red (ARS) is added to the solution. The ARS-boronate solution is then aliquoted into a 96 multiwell plate (black, flat and clear bottom) 1:1 with appropriate carbohydrate. In particular, D-glucose and L-lactate solutions are prepared in a 20 mM phosphate buffer pH 7.4 at these concentrations respectively: 1000, 500, 250, 100, 50, 25, 10, 5, 2.5, 1, 0.25, 0.1 mM and 2500, 1000, 500, 100, 50, 10, 5, 1, 0.5, 0.1, 0.05, 0.01 mM. The plate with ARS-boronate mixed with carbohydrate is incubated 20 minutes at room temperature. After 5 minutes of centrifugation at 4000 rpm the plate is placed in a multiwell spectrometer (Spectra Max, Molecular Devices) for absorption detection.
# (§5) The analysis is carried out at room temperature with absorption readings at 330, 340 and 520 nm, respectively.
# [2] = Alizarin red (ARS) assay, lactate binding affinity; details: 20 mM phosphate buffer pH 7.4, room temperature, N.D. = not detectable
# Experimental: as §1, §2, §3, §4, §5
smiles,measurement,setting,value
"O=C(O)CN(CCNC(=O)c1cc2c(cc1C(F)(F)F)COB2O)C(=O)c1cc2c(cc1C(F)(F)F)COB2O [Example 37, N-(1-Hydroxy-5-(trifluoromethyl)-1,3-dihydrobenzo[c][1,2]oxaborole-6-carbonyl)-N-(2-(1-hydroxy-5-(trifluoromethyl)-1,3-dihydrobenzo[c][1,2]oxaborole-6-carboxamido)ethyl)glycine]",Kd,[1],4.2 mM
same,Kd,[2],13 mM
"O=C(O)CNC(=O)c1cc(B(O)O)cc(C(F)(F)c2cc(B(O)O)cc(C(F)(F)F)c2)c1 [Example 18, (3-Borono-5-((3-borono-5-(trifluoromethyl)phenyl)difluoromethyl)benzoyl)glycine]",Kd,[1],0.4 mM
same,Kd,[2],13 mM
"O=C(O)CN=S(=O)(c1cc(B(O)O)cc(C(F)F)c1)c1cc(B(O)O)cc(C(F)F)c1 [Example 34, 2-((Bis(3-borono-5-(difluoromethyl)phenyl)(oxo)-λ6-sulfanylidene)amino)acetic acid]",Kd,[1],2.1 mM
same,Kd,[2],24.9 mM
"O=C(O)CCC(=O)N1C[C@H](NC(=O)c2cc3c(c(C(F)(F)F)c2)COB3O)[C@@H](NC(=O)c2cc3c(c(C(F)(F)F)c2)COB3O)C1 [Example 27, 4-((3S,4S)-3,4-Bis(1-hydroxy-4-(trifluoromethyl)-1,3-dihydrobenzo[c][1,2]oxaborole-6-carboxamido)pyrrolidin-1-yl)-4-oxobutanoic acid]",Kd,[1],1.1 mM
same,Kd,[2],41 mM
"O=C(O)CN(CCNC(=O)c1cc2c(c(S(=O)(=O)C(F)(F)F)c1)COB2O)C(=O)c1cc2c(c(S(=O)(=O)C(F)(F)F)c1)COB2O [Example 42, N-(1-Hydroxy-4-((trifluoromethyl)sulfonyl)-1,3-dihydrobenzo[c][1,2]oxaborole-6-carbonyl)-N-(2-(1-hydroxy-4-((trifluoromethyl)sulfonyl)-1,3-dihydrobenzo-[c][1,2]oxaborole-6-carboxamido)ethyl)glycine]",Kd,[1],1.1 mM
"O=C(NC[C@H](NC(=O)c1ccc2c(c1F)B(O)OC2)C(=O)O)c1ccc2c(c1F)B(O)OC2 [Example 15, (S)-2,3-Bis(7-fluoro-1-hydroxy-1,3-dihydrobenzo[c][1,2]oxaborole-6-carboxamido)propanoic acid]",Kd,[1],0.5 mM
same,Kd,[2],10 mM
"O=C(O)CNC(=O)c1cc(B(O)O)cc(C(=O)c2cc(B(O)O)cc(C(F)(F)F)c2)c1 [Example 19, (3-Borono-5-(3-borono-5-(trifluoromethyl)benzoyl)benzoyl)glycine]",Kd,[1],1.5 mM
same,Kd,[2],17 mM
"O=C(O)CN(CCNC(=O)c1cc2c(cc1F)B(O)OC2)C(=O)c1cc2c(cc1F)B(O)OC2 [Example 9, N-(6-Fluoro-1-hydroxy-1,3-dihydrobenzo[c][1,2]oxaborole-5-carbonyl)-N-(2-(6-fluoro-1-hydroxy-1,3-dihydrobenzo[c][1,2]oxaborole-5-carboxamido)ethyl)glycine]",Kd,[1],2.6 mM
same,Kd,[2],67.9 mM
"O=C(O)CN(CCNC(=O)c1cc(F)c2c(c1)B(O)OC2)C(=O)c1cc(F)c2c(c1)B(O)OC2 [Example 8, N-(4-Fluoro-1-hydroxy-1,3-dihydrobenzo[c][1,2]oxaborole-6-carbonyl)-N-(2-(4-fluoro-1-hydroxy-1,3-dihydrobenzo[c][1,2]oxaborole-6-carboxamido)ethyl)glycine]",Kd,[1],2.7 mM
same,Kd,[2],34 mM
"O=C(NC[C@H](NC(=O)c1ccc2c(c1)B(O)OC2)C(=O)O)c1ccc2c(c1)B(O)OC2 [Example 40, (S)-2,3-Bis(1-hydroxy-1,3-dihydrobenzo[c][1,2]oxaborole-6-carboxamido)propanoic acid]",Kd,[1],2 mM
"O=C(NC[C@H](NC(=O)c1cc2c(cc1F)COB2O)C(=O)O)c1cc2c(cc1F)COB2O [Example 16, (S)-2,3-Bis(5-fluoro-1-hydroxy-1,3-dihydrobenzo[c][1,2]oxaborole-6-carboxamido)propanoic acid]",Kd,[1],4.2 mM
same,Kd,[2],37 mM
"O=C(NCCCC[C@H](NC(=O)c1cc2c(cc1F)B(O)OC2)C(=O)O)c1ccc(B(O)O)cc1F [Example 14, N^6-(4-Borono-2-fluorobenzoyl)-N^2-(6-fluoro-1-hydroxy-1,3-dihydrobenzo[c][1,2]oxaborole-5-carbonyl)-L-lysine]",Kd,[1],3.2 mM
same,Kd,[2],16 mM
"O=C(O)CN(CCNC(=O)c1cc(Cl)c2c(c1)B(O)OC2)C(=O)c1cc(Cl)c2c(c1)B(O)OC2 [Example 32, N-(4-Chloro-1-hydroxy-1,3-dihydrobenzo[c][1,2]oxaborole-6-carbonyl)-N-(2-(4-chloro-1-hydroxy-1,3-dihydrobenzo[c][1,2]oxaborole-6-carboxamido)ethyl)glycine]",Kd,[1],3.2 mM
same,Kd,[2],60.6 mM
O=C(O)CNC(=O)c1cc(B(O)O)cc(S(=O)(=O)c2cc(B(O)O)cc(C(F)(F)F)c2)c1 [Example 20],Kd,[1],1.7 mM
same,Kd,[2],31 mM
"O=C(O)CN=S(=O)(c1cc2c(c(C(F)(F)F)c1)COB2O)c1cc2c(c(C(F)(F)F)c1)COB2O [Example 38, 2-((Bis(1-hydroxy-4-(trifluoromethyl)-1,3-dihydrobenzo[c][1,2]oxaborol-6-yl)(oxo)-λ6-sulfanylidene)amino)acetic acid]",Kd,[1],3.7 mM
"O=C(O)c1cc(B(O)O)cc(C(=O)c2cc(B(O)O)c(F)cc2F)c1 [Example 13, 3-Borono-5-(5-borono-2,4-difluorobenzoyl)benzoic acid]",Kd,[1],0.3 mM
same,Kd,[2],4 mM
"O=C(O)CCC(=O)N1C[C@H](NC(=O)c2ccc3c(c2F)B(O)OC3)[C@@H](NC(=O)c2ccc3c(c2F)B(O)OC3)C1 [Example 21, 4-((3S,4S)-3,4-Bis(7-fluoro-1-hydroxy-1,3-dihydrobenzo[c][1,2]oxaborole-6-carboxamido)pyrrolidin-1-yl)-4-oxobutanoic acid]",Kd,[1],2.6 mM
"O=C(O)CN(CCNC(=O)c1cc2c(cc1F)COB2O)C(=O)c1cc2c(cc1F)COB2O [Example 7, N-(5-Fluoro-1-hydroxy-1,3-dihydrobenzo[c][1,2]oxaborole-6-carbonyl)-N-(2-(5-fluoro-1-hydroxy-1,3-dihydrobenzo[c][1,2]oxaborole-6-carboxamido)ethyl)glycine]",Kd,[1],1.5 mM
same,Kd,[2],24.1 mM
"O=C(O)CNC(=O)c1cc(B(O)O)cc(S(=O)(=O)c2cc(F)cc(B(O)O)c2)c1 [Example 24, (3-Borono-5-((3-borono-5-fluorophenyl)sulfonyl)benzoyl)glycine]",Kd,[1],1.2 mM
same,Kd,[2],34 mM
"O=C(O)c1c(C(F)(F)F)cc(B(O)O)cc1S(=O)(=O)c1cc(B(O)O)cc(C(F)(F)F)c1 [Example 43, 4-Borono-2-((3-borono-5-(trifluoromethyl)phenyl)sulfonyl)-6-(trifluoromethyl)benzoic acid]",Kd,[1],0.7 mM
same,Kd,[2],22 mM
"O=C(O)CNC(=O)c1cc(B(O)O)cc(S(=O)(=O)c2cccc(B(O)O)c2)c1 [Example 39, (3-Borono-5-((3-boronophenyl)sulfonyl)benzoyl)glycine]",Kd,[1],2.4 mM
same,Kd,[2],27 mM
"O=C(NCC[C@H](NC(=O)c1ccc(B(O)O)c(F)c1)C(=O)O)c1ccc(B(O)O)c(F)c1 [Example 4, (S)-2,4-bis(4-borono-3-fluorobenzamido)butanoic acid]",Kd,[1],2.6 mM
same,Kd,[2],6.5 mM
"O=C(O)c1cc(CNC(=O)c2ccc(B(O)O)cc2F)cc(CNC(=O)c2ccc(B(O)O)cc2F)c1 [Example 1, 3,5-Bis((4-borono-2-fluorobenzamido)methyl)benzoic acid]",Kd,[1],3.1 mM
same,Kd,[2],8.6 mM
"O=C(O)c1cc(CNC(=O)c2ccc3c(c2F)B(O)OC3)cc(CNC(=O)c2ccc3c(c2F)B(O)OC3)c1 [Example 6, 3,5-Bis((7-fluoro-1-hydroxy-1,3-dihydrobenzo[c][1,2]oxaborole-6-carboxamido)methyl) benzoic acid]",Kd,[1],1.1 mM
"O=C(O)c1cc(B(O)O)cc(C(=O)c2cc(F)cc(B(O)O)c2)c1 [Example 12, 3-Borono-5-(3-borono-5-fluorobenzoyl)benzoic acid]",Kd,[1],1.1 mM
same,Kd,[2],18 mM
"O=C(NC[C@H](NC(=O)c1cc(F)c2c(c1)B(O)OC2)C(=O)O)c1cc(F)c2c(c1)B(O)OC2 [Example 17, (S)-2,3-Bis(4-fluoro-1-hydroxy-1,3-dihydrobenzo[c][1,2]oxaborole-6-carboxamido) propanoic acid]",Kd,[1],1.6 mM
"O=C(O)CCC(=O)N1C[C@@H](NC(=O)c2cc3c(c(C(F)(F)F)c2)COB3O)[C@H](NC(=O)c2cc3c(c(C(F)(F)F)c2)COB3O)C1 [Example 29, 4-[(3R,4R)-3,4-bis[[1-hydroxy-4-(trifluoromethyl)-3H-2,1-benzoxaborole-6-carbonyl]amino]pyrrolidin-1-yl]-4-oxobutanoic acid]",Kd,[1],2.3 mM
"O=C(O)CNC(=O)c1cc(B(O)O)cc(S(=O)(=O)c2cc(B(O)O)cc(S(F)(F)(F)(F)F)c2)c1 [Example 28, (3-Borono-5-((3-borono-5-(pentafluoro-λ^6-sulfanyl)phenyl)sulfonyl)benzoyl)glycine]",Kd,[1],0.3 mM
"O=C(NCCCC[C@H](NC(=O)c1cc2c(cc1F)B(O)OC2)C(=O)O)c1cc2c(cc1F)B(O)OC2 [Example 10, N^2,N^6-Bis(6-fluoro-1-hydroxy-1,3-dihydrobenzo[c][1,2]oxaborole-5-carbonyl)-L-lysine]",Kd,[1],3.2 mM
